According to US4352788A, “Derivatives of 2,4,6-triiodo-isophthalic acid, processes for their synthesis and X-ray contrasting materials containing these” (Bracco Industria Chimica S.p.A., priority 1979, dated 1982):
In brackets after ≈: the same amount, converted by molar mass. Entries after “also recorded” stand apart in the source; their conditions may differ. Where two headings read alike, the source gives them in different places.

Tests used:
[1] = cited from earlier work; for water solubility (in words): prior art
Water solubility = format: physicochemical; details: for solubility: water
[2] = Viscosity of aqueous solutions; format: physicochemical; details: for Viscosity at 37° C.: injection solution (Example 14)
[3] = cited from earlier work
[4] = prior art; cited from earlier work
[5] = compared with METRIZAMIDE; cited from earlier work
[6] = Osmotic pressure of solutions; format: physicochemical; details: for Osmotic Pressure: 37° C.
Osmolality of solutions = format: physicochemical; details: 37° C.
[7] = Solubility in organic solvents; format: physicochemical
[8] = Stability (hydrolysis, aqueous solution); format: physicochemical
[9] = Density of injection solution; format: physicochemical; details: injection solution (Example 14), in g/mL (unit assumed)
[10] = aqueous solution containing 300 mg I/ml, 20° C.
[11] = aqueous solution containing 300 mg I/ml, 37° C.
[12] = aqueous solution containing 400 mg I/ml, 20° C.
[13] = aqueous solution containing 400 mg I/ml, 37° C.
[14] = at 20° C., Table 1, read-out: Solubility in Water
[15] = at 25° C., read-out: Water solubility

Question: With `CC(=O)Nc1c(I)c(C(=O)NCC(O)CO)c(I)c(C(=O)NCC(O)CO)c1I` (stereo not drawn) [5-acetylamino-2,4,6-triiodoisophthalic-acid-bis-(2,3-dihydroxypropylamide)] as the molecule, how does the water solubility ([1]; at 20°-40° C.) read?
Answer: 1 % (w/v)

Question: And the “water solubility (in words)” value [1]?
Answer: slightly water-soluble

Question: Which “water solubility (in words)” value (Water solubility) does the source give for `CC(O)C(=O)Nc1c(I)c(C(=O)NC(CO)CO)c(I)c(C(=O)NC(CO)CO)c1I` (racemic) [d,L-5-α-hydroxypropionylamino-2,4,6-triiodo-isophthalic-acid-bis-(1,3-dihydroxyisopropylamide)] here?
Answer: only limited solubility in water

Question: Which results are given for `CC(=O)Nc1c(I)c(C(=O)N[C@H]2C(O)O[C@H](CO)[C@@H](O)[C@@H]2O)c(I)c(N(C)C(C)=O)c1I` (stereo partly drawn) [C, 3-acetylamino-4-N-methyl-acetylamino-2,4,6-triiodobenzoylglucosamine, reference compound]?
Answer: Viscosity [2, 10]: 11.7 cP; Viscosity [2, 11]: 5.98 cP; Viscosity [2, 12]: 77.8 cP; Viscosity [2, 13]: 26.9 cP; water solubility (in words) [1]: readily water-soluble; stability in aqueous solutions (in words) ([3]; prior art): relatively little stability in aqueous solutions; solubility (Water solubility; [14]): ~800 mg/mL (≈ 1010 mM)

Question: Which water solubility (Water solubility; at 20° C.) does the source give for `C[C@H](O)C(=O)Nc1c(I)c(C(=O)NC(CO)CO)c(I)c(C(=O)NC(CO)CO)c1I` [IOPAMIDOL hydrate, reference compound] here?
Answer: 307 mg of iodine per ml

Question: What about the solubility (Water solubility; at 20° C., read-out: water solubility) of the same molecule?
Answer: 627 mg/mL

Question: For `C[C@H](O)C(=O)Nc1c(I)c(C(=O)NC(CO)CO)c(I)c(C(=O)NC(CO)CO)c1I` [Compound B, L-5-α-hydroxypropionylamino-2,4,6-triiodo-isophthalic-acid-bis-(1,3-dihydroxyisopropylamide), reference compound], which “toxicity (in words)” value [4] is on record?
Answer: very low

Question: And the Viscosity [2, 10]?
Answer: 8.95 cP

Question: And the Viscosity [2, 11]?
Answer: 4.70 cP

Question: And the Viscosity [2, 12]?
Answer: 40.6 cP

Question: What about the Viscosity [2, 13] of the same molecule?
Answer: 16.1 cP

Question: And the “viscosity of concentrated aqueous solutions (in words)” value [5]?
Answer: lower viscosity

Question: What about the “Osmotic Pressure” value ([6]; 250 mg I/ml) of the same molecule?
Answer: 13.09 atm

Question: What about the “Osmotic Pressure” value ([6]; 300 mg I/ml) of the same molecule?
Answer: 15.76 atm

Question: What about the “Osmotic Pressure” value ([6]; 350 mg I/ml) of the same molecule?
Answer: 18.77 atm

Question: And the “stability (in words)” value ([3]; compared with METRIZAMIDE)?
Answer: higher stability

Question: What about the water solubility (Water solubility; at 20° C., text) of the same molecule?
Answer: 89.7 % w/v

Question: And the water solubility (Water solubility; at 20° C., listed as IOPAMIDOL)?
Answer: 440 mg of iodine per ml

Question: And the Osmolality (Osmolality of solutions; 250 mg I/ml)?
Answer: 514 mOsm/kg

Question: What about the Osmolality (Osmolality of solutions; 300 mg I/ml) of the same molecule?
Answer: 619 mOsm/kg

Question: What about the Osmolality (Osmolality of solutions; 350 mg I/ml) of the same molecule?
Answer: 737 mOsm/kg

Question: Which “supersaturation of aqueous solutions” value (Water solubility) does the source give for `CC(O)C(=O)N(C)c1c(I)c(C(=O)NC(CO)CO)c(I)c(C(=O)NC(CO)CO)c1I` (racemic) [d,L-5-(N-methyl-α-hydroxypropionyl-amino)-2,4,6-triiodo-isophthalic-acid-bis-(1,3-dihydroxyisopropylamide] here?
Answer: supersaturated

Question: What about the “water solubility (in words)” value (Water solubility) of the same molecule?
Answer: dissolves in water very readily

Question: With `CCCCN(C(=O)[C@H](C)O)c1c(I)c(C(=O)NC(CO)CO)c(I)c(C(=O)NC(CO)CO)c1I` [Example 4, L-5-(N-butyl-α-hydroxypropionyl-amino)-2,4,6-triiodo-isophthalic-acid-bis-(1,3-dihydroxyisopropylamide)] as the molecule, how does the solubility (Water solubility; temperature not stated, read-out: Water solubility) read?
Answer: ≥ 1000 mg/mL

Question: For `CCCN(C(=O)[C@H](C)O)c1c(I)c(C(=O)NC(CO)CO)c(I)c(C(=O)NC(CO)CO)c1I` [Example 3], which solubility (Water solubility; [15]) is on record?
Answer: ≥ 1000 mg/mL

Question: With `CN(C(=O)CO)c1c(I)c(C(=O)NCC(O)CO)c(I)c(C(=O)NCC(O)CO)c1I` (stereo not drawn) [Compound A, 5-(N-methyl-hydroxyacetylamino)-2,4,6-triiodo-isophthalic-acid-bis-(2,3-dihydroxypropylamide)] as the molecule, how does the “viscosity of aqueous solutions (in words)” value [2] read?
Answer: low viscosity; also recorded: appreciably lower viscosity

Question: What about the Viscosity [2, 10] of the same molecule?
Answer: 7.55 cP

Question: What about the Viscosity [2, 11] of the same molecule?
Answer: 4.19 cP

Question: What about the Viscosity [2, 12] of the same molecule?
Answer: 22.0 cP

Question: What about the Viscosity [2, 13] of the same molecule?
Answer: 9.87 cP

Question: And the “Viscosity at 37° C.” value ([2]; 200 mg iodine/ml)?
Answer: 1.87 cP

Question: What about the “Viscosity at 37° C.” value ([2]; 300 mg iodine/ml) of the same molecule?
Answer: 4.19 cP

Question: What about the “Viscosity at 37° C.” value ([2]; 420 mg iodine/ml) of the same molecule?
Answer: 20.03 cP

Question: What about the “Osmotic Pressure” value ([6]; 250 mg I/ml) of the same molecule?
Answer: 11.52 atm

Question: What about the “Osmotic Pressure” value ([6]; 300 mg I/ml) of the same molecule?
Answer: 13.64 atm

Question: And the “Osmotic Pressure” value ([6]; 350 mg I/ml)?
Answer: 15.98 atm

Question: What about the “osmotic pressure (in words)” value ([6]; compared with IOPAMIDOL) of the same molecule?
Answer: less than that of IOPAMIDOL

Question: What about the “Solubility in ethanol (in words)” value [7] of the same molecule?
Answer: limited

Question: And the Solubility in ethanol ([7]; ethanol at 25° C.)?
Answer: 35 parts by volume

Question: And the Solubility in ethanol ([7]; ethanol at the boiling point)?
Answer: 20 parts by volume

Question: What about the solubility ([7]; methanol, organic solvent or mixture) of the same molecule?
Answer: 1000 mg/mL (≈ 1290 mM)

Question: What about the “solubility in methanol (in words)” value ([7]; methanol, listed as Example 9) of the same molecule?
Answer: very readily soluble

Question: And the “solubility in methanol (in words)” value ([7]; methanol, listed as Example 11)?
Answer: very soluble

Question: What about the “water solubility (in words)” value (Water solubility) of the same molecule?
Answer: comparatively particularly high water-solubility; also recorded: higher water solubility

Question: What about the “water solubility (in words)” value (Water solubility; listed as Example 9) of the same molecule?
Answer: very readily soluble

Question: And the “water solubility (in words)” value (Water solubility; listed as Example 11)?
Answer: very soluble

Question: What about the solubility (Water solubility; [14]) of the same molecule?
Answer: > 1000 mg/mL

Question: What about the solubility (Water solubility; read-out: solubility in water) of the same molecule?
Answer: 3000 mg/mL (≈ 3860 mM)

Question: What about the “stability (in words)” value [8] of the same molecule?
Answer: high stability

Question: What about the “Density at 37° C.” value ([9]; 200 mg iodine/ml) of the same molecule?
Answer: 1.207

Question: What about the “Density at 37° C.” value ([9]; 300 mg iodine/ml) of the same molecule?
Answer: 1.316

Question: What about the “Density at 37° C.” value ([9]; 420 mg iodine/ml) of the same molecule?
Answer: 1.453

Question: And the Osmolality (Osmolality of solutions; 250 mg I/ml)?
Answer: 452 mOsm/kg

Question: And the Osmolality (Osmolality of solutions; 300 mg I/ml)?
Answer: 536 mOsm/kg

Question: And the Osmolality (Osmolality of solutions; 350 mg I/ml)?
Answer: 628 mOsm/kg

Question: For `C[C@H](O)C(=O)N(C)c1c(I)c(C(=O)NC(CO)CO)c(I)c(C(=O)NC(CO)CO)c1I` [Example 1, L-5-(N-methyl-α-hydroxypropionyl-amino)-2,4,6-triiodoisophthalic-acid-bis-(1,3-dihydroxyisopropylamide)], which solubility (Water solubility; [15]) is on record?
Answer: ≥ 1000 mg/mL

Question: What does the source list for `CN(C(=O)CO)c1c(I)c(C(=O)NCC2COC(C)(C)O2)c(I)c(C(=O)NCC2COC(C)(C)O2)c1I` (stereo not drawn) [Example 13(A), 5-(N-methyl-hydroxyacetyl-amino)-2,4,6-triiodo-isophthalic-acid-bis-(2,3-isopropylidenedihydroxypropylamide)]?
Answer: solubility in chloroform (in words) ([7]; chloroform): very soluble; Solubility in ethanol (in words) [7]: very soluble; solubility in methanol (in words) ([7]; methanol): very soluble; water solubility (in words) (Water solubility): only slightly soluble in water
